According to patent US7183280B2, “Bicyclic imidazole derivatives, the preparation thereof and their use as pharmaceutical compositions” (Boehringer Ingelheim International GmbH, priority 2004, dated 2007):

Legend:
DPP-IV = molecular target: T1, DPP-IV (Homo sapiens, UniProt P27487); test: DPP-IV assay with Caco-2 cell extract, AFC substrate, fluorescence; assay type: biochemical; details: extract of human colon carcinoma cell line Caco-2 as DPP IV source; AFC substrate 100 μM; 60 minutes, ambient temperature; read-out: DPP IV inhibition IC50
T1 construct: an extract of the human colon carcinoma cell line Caco-2 is used as the DPP IV source; endogenous in cells; host or cells: Caco-2 (human colon carcinoma), differentiated to induce DPP-IV expression; Nonidet-P40 solubilised extract
T1 sequence (P27487 whole entry): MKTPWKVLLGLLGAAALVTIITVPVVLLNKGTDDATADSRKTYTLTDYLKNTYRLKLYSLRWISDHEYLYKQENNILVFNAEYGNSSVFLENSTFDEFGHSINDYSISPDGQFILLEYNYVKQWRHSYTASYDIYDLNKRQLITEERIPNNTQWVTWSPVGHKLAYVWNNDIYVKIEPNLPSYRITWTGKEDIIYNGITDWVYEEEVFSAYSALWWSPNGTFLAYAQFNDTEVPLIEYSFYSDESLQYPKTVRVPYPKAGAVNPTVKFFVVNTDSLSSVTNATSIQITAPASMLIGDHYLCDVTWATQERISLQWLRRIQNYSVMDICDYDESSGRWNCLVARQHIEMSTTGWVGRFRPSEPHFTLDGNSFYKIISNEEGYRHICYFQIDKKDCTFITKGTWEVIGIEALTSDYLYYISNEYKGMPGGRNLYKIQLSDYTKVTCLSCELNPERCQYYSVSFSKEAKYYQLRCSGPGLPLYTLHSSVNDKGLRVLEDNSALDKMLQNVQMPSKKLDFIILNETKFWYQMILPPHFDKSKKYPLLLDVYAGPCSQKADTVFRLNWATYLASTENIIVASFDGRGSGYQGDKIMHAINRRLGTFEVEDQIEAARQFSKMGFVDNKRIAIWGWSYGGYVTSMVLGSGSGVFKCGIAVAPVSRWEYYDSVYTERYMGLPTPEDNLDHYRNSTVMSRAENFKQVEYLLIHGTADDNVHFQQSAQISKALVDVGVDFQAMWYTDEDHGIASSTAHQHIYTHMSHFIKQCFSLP
Protocol: The differentiation of the cells in order to induce the DPP-IV expression was carried out in accordance with the description by Reiher et al. in an article entitled “Increased expression of intestinal cell line Caco-2”, which appeared in Proc. Natl. Acad. Sci. Vol. 90, pp. 5757–5761 (1993). The cell extract was obtained from cells solubilised in a buffer (10 mM Tris HCl, 0.15 M NaCl, 0.04 t.i.u. aprotinin, 0.5% Nonidet-P40, pH 8.0) by centrifugation at 35,000 g for 30 minutes at 4° C. (to remove cell debris).
The DPP-IV assay was carried out as follows:
50 μl of substrate solution (AFC; AFC is amido-4-trifluoromethylcoumarin), final concentration 100 μM, were placed in black microtitre plates. 20 μl of assay buffer (final concentrations 50 mM Tris HCl pH 7.8, 50 mM NaCl, 1% DMSO) was pipetted in. The reaction was started by the addition of 30 μl of solubilised Caco-2 protein (final concentration 0.14 μg of protein per well). The test substances under investigation were typically added prediluted to 20 μl, while the volume of assay buffer was then reduced accordingly. The reaction was carried out at ambient temperature, the incubation period was 60 minutes. Then the fluorescence was measured in a Victor 1420 Multilabel Counter, with the excitation wavelength at 405 nm and the emission wavelength at 535 nm. Dummy values (corresponding to 0% activity) were obtained in mixtures with no Caco-2 protein (volume replaced by assay buffer), control values (corresponding to 100% activity) were obtained in mixtures without any added substance. The potency of the test substances in question, expressed as IC50 values, were calculated from dosage/activity curves consisting of 11 measured points in each case.

rats = test: Tolerability in rats after oral administration; assay type: in vivo; details: oral administration of 10 mg/kg

Molecule | IC50 (DPP-IV) [nM] | toxic side effects (rats)
1-[(1-oxy-quinolin-2-yl)methyl]-3-methyl-7-(2-butyn-1-yl)-8-((R)-3-amino-piperidin-1-yl)-xanthine [1(1)] | 1 | 
CC#CCn1c(N2CCC[C@@H](N)C2)nc2c1c(=O)n(Cc1nc3ccccc3c(C)[n+]1[O-])c(=O)n2C [Example 1, 1-[(4-methyl-3-oxy-quinazolin-2-yl)methyl]-3-methyl-7-(2-butyn-1-yl)-8-((R)-3-amino-piperidin-1-yl)-xanthine] | 2 | no toxic side effects could be detected
CC#CCn1c(N2CCC[C@@H](N)C2)nc2c1c(=O)n(Cc1c3ccccc3cc(C)[n+]1[O-])c(=O)n2C [1(2), 1-[(3-methyl-2-oxy-isoquinolin-1-yl)methyl]-3-methyl-7-(2-butyn-1-yl)-8-((R)-3-amino-piperidin-1-yl)-xanthine] | 4 | 
CC#CCn1c(N2CCC[C@@H](N)C2)nc2c1c(=O)n(Cc1nc3ccccc3c[n+]1[O-])c(=O)n2C [1(4), 1-[(3-oxy-quinazolin-2-yl)methyl]-3-methyl-7-(2-butyn-1-yl)-8-((R)-3-amino-piperidin-1-yl)-xanthine] | 2 | 
CC#CCn1c(N2CCC[C@@H](N)C2)nc2c1c(=O)n(Cc1c3ccccc3c3ccccc3[n+]1[O-])c(=O)n2C [1(3), 1-[(5-oxy-phenanthridin-6-yl)methyl]-3-methyl-7-(2-butyn-1-yl)-8-((R)-3-amino-piperidin-1-yl)-xanthine] | 6 | 
